Measurements: patent US9284303B2, “Benzimidazole cannabinoid agonists bearing a substituted heterocyclic group” (priority 2006, dated 2016)

How the values were obtained:
[1] = target: T1, human CB2 (hCB2) receptor (Homo sapiens, UniProt P34972); test: Inhibition of forskolin-activated cAMP production upon activation of hCB2 (HTRF), CHO-K1 cells; assay type: cell-based; conditions: for ratio CB2 agonism over CB1 agonism: Table C-1, selectivity hCB2 over hCB1; for EC50: hCB2-CHO-K1 cells, forskolin-activated cAMP, pEC50=-log(EC50), read-out: CB2 pEC50 (converted)
T1 construct: expressed in transfected cells; host or cells: CHO-K1
T1 sequence (P34972 whole entry): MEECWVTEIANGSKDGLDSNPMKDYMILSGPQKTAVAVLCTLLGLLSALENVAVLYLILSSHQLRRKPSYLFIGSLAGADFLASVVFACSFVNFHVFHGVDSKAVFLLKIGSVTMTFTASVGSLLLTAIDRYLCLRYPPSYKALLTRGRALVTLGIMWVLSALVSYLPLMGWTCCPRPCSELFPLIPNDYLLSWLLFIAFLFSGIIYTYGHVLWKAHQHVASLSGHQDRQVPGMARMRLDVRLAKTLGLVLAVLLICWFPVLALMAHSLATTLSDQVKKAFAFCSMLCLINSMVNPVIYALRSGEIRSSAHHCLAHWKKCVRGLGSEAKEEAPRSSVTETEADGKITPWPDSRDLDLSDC

[2] = target: T2, human CB1 (hCB1) receptor (Homo sapiens, UniProt P21554); test: Inhibition of forskolin-activated cAMP production upon activation of hCB1 (HTRF), CHO-K1 cells; assay type: cell-based; conditions: CB1 pEC50, hCB1-CHO-K1 cells, forskolin-activated cAMP, pEC50=-log(EC50)
T2 construct: expressed in transfected cells; host or cells: CHO-K1
T2 sequence (P21554 whole entry): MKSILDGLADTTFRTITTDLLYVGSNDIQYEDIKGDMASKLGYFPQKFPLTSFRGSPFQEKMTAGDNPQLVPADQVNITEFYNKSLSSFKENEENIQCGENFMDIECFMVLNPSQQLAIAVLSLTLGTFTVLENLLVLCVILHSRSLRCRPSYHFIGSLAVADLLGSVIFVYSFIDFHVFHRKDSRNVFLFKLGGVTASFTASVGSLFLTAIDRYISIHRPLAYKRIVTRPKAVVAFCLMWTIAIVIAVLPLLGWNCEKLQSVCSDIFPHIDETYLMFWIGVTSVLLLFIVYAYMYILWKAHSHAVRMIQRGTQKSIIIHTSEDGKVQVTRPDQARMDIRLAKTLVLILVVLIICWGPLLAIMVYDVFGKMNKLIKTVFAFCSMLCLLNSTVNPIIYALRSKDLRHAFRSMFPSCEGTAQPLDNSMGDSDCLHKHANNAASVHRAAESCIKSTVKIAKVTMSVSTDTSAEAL
How it was run: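 CHO-K1 cells stably expressing hCB1 (20,000/well) were in HBSS stimulation buffer (1 mM IBMX, 10 mM MgCl2, 0.1% BSA, pH 7.4), with 6 μM forskolin in the compound buffer, 30 min at room temperature in the dark. cAMP was read as HTRF 665/620 ratio, normalized to DMSO and CP55490. Outputs were pEC50 and inhibition at 10 μM relative to CP55490.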

Structure (SMILES)	melting point [°C]	ratio CB2 agonism over CB1 agonism [1]	EC50 [1] [nM]	EC50 [2] [nM]	ratio CB2 agonism over CB1 agonism ([1]; listed as 52)	ratio CB2 agonism over CB1 agonism ([1]; listed as 57)	ratio CB2 agonism over CB1 agonism ([1]; listed as 62)
CC(C)(C)c1nc2cc(S(=O)(=O)c3ccc(-c4ncon4)s3)ccc2n1CC1CCOCC1 [Co. No. 48]	199	347	0.575	200			
COC(C)c1ccc(S(=O)(=O)c2ccc3c(c2)nc(C(C)(C)C)n3CC2CCOCC2)nc1 (stereo not drawn) [Co. No. 49]	140	>2138	4.68	> 10000			
CC(=O)c1ccc(S(=O)(=O)c2ccc3c(c2)nc(C(C)(C)C)n3CC2CCOCC2)cn1 [Co. No. 50]	162	6457	0.692	4470			
CC(C)(C)c1nc2cc(S(=O)(=O)c3ccc(C#N)nc3)ccc2n1CC1CCOCC1 [Co. No. 51]	228	73	1.23	89.1			
COc1ccc(S(=O)(=O)c2ccc3c(c2)nc(C(C)(C)C)n3CC2CCOCC2)cn1 [Co. No. 52]	198		0.692	229	331		
CC(C)(C)c1nc2cc(S(=O)(=O)c3ccc(C(C)(C)O)s3)ccc2n1CC1CCOCC1 [Co. No. 53]	258	607	3.72	2240			
CC(C)(C)c1nc2cc(S(=O)(=O)c3coc(C4OCCO4)c3)ccc2n1CC1CCOCC1 [Co. No. 55]	141	363	2.29	832			
CC(C)(C)c1nc2cc(S(=O)(=O)c3ccc(S(C)(=O)=O)nc3)ccc2n1CC1CCOCC1 [Co. No. 56]	150 to 160	>3802	2.63	> 10000			
CC(C)(C)c1nc2cc(S(=O)(=O)c3ccc(S(C)(=O)=O)s3)ccc2n1CC1CCOCC1 [Co. No. 57]	216		1.1	1450		1328	
CCNS(=O)(=O)c1ccc(S(=O)(=O)c2ccc3c(c2)nc(C(C)(C)C)n3CC2CCOCC2)s1 [Co. No. 59]	158	2018	1.12	2290			
CC(C)(C)c1nc2cc(S(=O)(=O)c3ccc(C#N)o3)ccc2n1CC1CCOCC1 [Co. No. 60]	145.5 to 145.7	638	1.05	661			
CC(C)(C)c1nc2cc(S(=O)(=O)c3sc(S(C)(=O)=O)cc3Br)ccc2n1CC1CCOCC1 [Co. No. 62]	200		0.589	1950			3299
CC(C)(C)c1nc2cc(S(=O)(=O)c3sc(S(=O)(=O)N4CCOCC4)cc3Br)ccc2n1CC1CCOCC1 [Co. No. 65]	230	>3388	2.95	> 10000			
CC(C)(C)c1nc2cc(S(=O)(=O)c3ccc(S(=O)(=O)N4CCOCC4)cn3)ccc2n1CC1CCOCC1 [Co. No. 66]	224	>676	14.8	> 10000			
CC(C)(C)c1nc2cc(S(=O)(=O)c3ccc(S(C)(=O)=O)cn3)ccc2n1CC1CCOCC1 [Co. No. 67]	183	>2344	4.27	> 10000			
Cc1oc(S(=O)(=O)c2ccc3c(c2)nc(C(C)(C)C)n3CC2CCOCC2)cc1S(C)(=O)=O [Co. No. 68]	204 to 205	116	3.09	363			
Cn1ccc(S(=O)(=O)c2ccc3c(c2)nc(C(C)(C)C)n3CC2CCOCC2)cc1=O [Co. No. 69]	216	398	1.74	692			
CC(C)(C)c1nc2cc(S(=O)(=O)c3cc(Cl)nc(Cl)c3)ccc2n1CC1CCOCC1 [Co. No. 71]	198	>13490	0.741	> 10000			
COc1cc(S(=O)(=O)c2ccc3c(c2)nc(C(C)(C)C)n3CC2CCOCC2)c(F)cn1 [Co. No. 72]	139.6 to 140.2	1525	0.676	1020			
CC(C)(C)c1nc2cc(S(=O)(=O)c3ccc(C(N)=O)s3)ccc2n1CC1CCOCC1 [Co. No. 73]	209.4	84	1.38	117			
COC(=O)c1cc(S(=O)(=O)c2ccc3c(c2)nc(C(C)(C)C)n3CC2CCOCC2)c[nH]1 [Co. No. 75]	231	2291	4.17	9550			

Structure (SMILES)	melting point [°C]	ratio CB2 agonism over CB1 agonism [1]	EC50 [1] [nM]	EC50 [2] [nM]	ratio CB2 agonism over CB1 agonism ([1]; listed as 52)	ratio CB2 agonism over CB1 agonism ([1]; listed as 57)	ratio CB2 agonism over CB1 agonism ([1]; listed as 62)
CC(C)(C)c1nc2cc(S(=O)(=O)c3ccc(C(=O)N4CCOCC4)s3)ccc2n1CC1CCOCC1 [Co. No. 79]	184.6	543	2.95	1580			
CC(C)(C)c1nc2cc(S(=O)(=O)c3ccc(C(=O)N4CCOCC4)o3)ccc2n1CC1CCOCC1 [Co. No. 80]	172.1	2483	4.17	10500			
COC(=O)c1cc(C)c(S(=O)(=O)c2ccc3c(c2)nc(C(C)(C)C)n3CC2CCOCC2)s1 [Co. No. 81]	185.8	2138	0.501	1070			
CC(C)(C)c1nc2cc(S(=O)(=O)c3cc(O)ncc3F)ccc2n1CC1CCOCC1 [Co. No. 82]	291.8 to 294.6	407	3.89	1580			
CC(C)(C)c1nc2cc(S(=O)(=O)c3c(Cl)cncc3Cl)ccc2n1CC1CCOCC1 [Co. No. 84]	242.9	490	1.26	617			
CC(C)(C)c1nc2cc([S+]([O-])c3c(Cl)cncc3Cl)ccc2n1CC1CCOCC1 (stereo not drawn) [Co. No. 85]	192.9	891	0.933	832			
CC(C)(C)c1nc2cc(S(=O)(=O)c3cc[n+]([O-])cc3Br)ccc2n1CC1CCOCC1 [Co. No. 87]	205.3		2.14	2290			
CC(C)(C)c1nc2cc([S+]([O-])c3ccncc3Br)ccc2n1CC1CCOCC1 (stereo not drawn) [Co. No. 88]	184.7	537	2.34	1260			
Cc1cc(S(=O)(=O)c2ccc3c(c2)nc(C(C)(C)C)n3CC2CCOCC2)cc[n+]1[O-] [Co. No. 89]	215.3		11.2	> 10000			
CC(C)(C)c1nc2cc(S(=O)(=O)c3ccn(/C(F)=C/I)c(=O)c3)ccc2n1CC1CCOCC1 [Co. No. 90]	113.9	>3715	2.69	> 10000			
COc1ccc(S(=O)(=O)c2ccc3c(c2)nc(C(C)(C)C#N)n3CC2CCOCC2)nn1 [Co. No. 92]	161.1	437	6.92	2950			
CC(C)(C)c1nc2cc(S(=O)(=O)c3ccc(=O)[nH]n3)ccc2n1CC1CCOCC1 [Co. No. 94]	218.3	1059	2.51	2690			
CC(=O)Nc1cc(S(=O)(=O)c2ccc3c(c2)nc(C(C)(C)C)n3CC2CCOCC2)cc[n+]1[O-] [Co. No. 96]	247.2		2	> 10000			
CC(C)(C)c1nc2cc(S(=O)(=O)c3ccn(CC(F)(F)F)c(=O)c3)ccc2n1CC1CCOCC1 [Co. No. 97]	152.9	2065	1.86	3890			
CC(C)(C)c1nc2cc(S(=O)(=O)c3cccc(C#N)n3)ccc2n1CC1CCOCC1 [Co. No. 98]	224.5 to 226.7	794	0.955	741			
CC(C)(C)c1nc2cc(S(=O)(=O)c3ccc(C(F)(F)F)cn3)ccc2n1CC1CCOCC1 [Co. No. 99]	140.5 to 142.3	700	1.32	933			
Cn1nc(S(=O)(=O)c2ccc3c(c2)nc(C(C)(C)C)n3CC2CCOCC2)ccc1=O [Co. No. 100]	224.3	631	1.58	1000			
CC(=O)Nc1ccc(S(=O)(=O)c2ccc3c(c2)nc(C(C)(C)C)n3CC2CCOCC2)nn1 [Co. No. 101]	290.1	58	2.51	148			
Cc1cc(S(=O)(=O)c2ccc3c(c2)nc(CC(C)(C)C)n3CC2CCOCC2)cc[n+]1[O-] [Co. No. 102]	231.7		5.01	9120			
CC(C)(C)Cc1nc2cc(S(=O)(=O)c3cc[n+]([O-])cc3)ccc2n1CC1CCOCC1 [Co. No. 103]	259.7		7.08	2090			
